Results: patent publication US10865191B2, “Heterocyclic compounds useful as modulators of TNF alpha” (BRISTOL-MYERS SQUIBB COMPANY, priority 2015, dated 2020)
pIC50: −log10 of the molar value.

Each molecule was assayed against TNFα (Homo sapiens, UniProt P01375) (assay: TNF induced HEK-Blue assay (NF-kB-driven secreted alkaline phosphatase reporter)). Details: TNF induced HEK-Blue assay IC50 value, TNFα 0.5 ng/mL, HEK-Blue-CD40L cells, 18 h.
Sequence of TNFα (P01375 77-233 limits assumed): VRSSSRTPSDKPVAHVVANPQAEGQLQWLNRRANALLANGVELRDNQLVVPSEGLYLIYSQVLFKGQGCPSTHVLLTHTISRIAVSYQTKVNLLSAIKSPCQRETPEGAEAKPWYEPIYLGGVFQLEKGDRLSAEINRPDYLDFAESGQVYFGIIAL
Format: cell-based
How it was run: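 HEK-Blue-CD40L cells (NF-kB-driven SEAP reporter), 20,000/well, added after 30 min pre-incubation of compound (0.004–25 μM final) with TNFα 0.5 ng/mL final at 37 °C; 18 h incubation. SEAP read with QUANTI-Blue at 620 nm; IC50 from 4-parameter logistic fit, normalized to unstimulated and stimulated DMSO controls.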
In the case of `C[C@@H](Nc1c(Cl)cnc2ccc(-c3ccc(S(C)(=O)=O)nc3)cc12)c1ccccc1F` [Example 221, (R)-3-chloro-N-(1-(2-fluorophenyl)ethyl)-6-(6-(methylsulfonyl)pyridin-3-yl)quinolin-4-amine], the pIC50 was over 6.00. Work on `CCC(Nc1c(Cl)cnc2ccc(-c3cnc(C(C)(C)O)nc3)cc12)c1ccccc1F` (racemic) [Example 190, 2-(5-(3-chloro-4-((1-(2-fluorophenyl)propyl)amino)quinolin-6-yl)pyrimidin-2-yl)propan-2-ol] yielded a pIC50 of over 6.00. `CC(Nc1c(Cl)cnc2ccc(-c3cnc(C(C)(C)O)nc3)c(Cl)c12)c1ccccc1F` (racemic) [Example 296, 2-(5-(3,5-dichloro-4-((1-(2-fluorophenyl)ethyl)amino)quinolin-6-yl)pyrimidin-2-yl)propan-2-ol] was tested, and the pIC50 was over 6.00.

Same assay, conditions: TNFα 0.5 ng/mL, HEK-Blue-CD40L cells, 18 h; read-out: TNF induced HEK-Blue assay IC50 value
Molecule `O=C(O)CN1CCN(c2ccc(-c3ccc4ncc(Cl)c(N[C@@H](c5ccccc5F)C(F)F)c4c3)cc2)CC1` [Example 16, (S)-2-(4-(4-(3-chloro-4-((2,2-difluoro-1-(2-fluorophenyl)ethyl)amino)quinolin-6-yl)phenyl)piperazin-1-yl)acetic acid] has a pIC50 of over 6.00. For `C[C@@H](Nc1c(Cl)cnc2ccc(-c3cnc(N4CCN(CC#N)CC4)nc3)cc12)c1ccccc1F` [Example 233, (R)-2-(4-(5-(3-chloro-4-((1-(2-fluorophenyl)ethyl)amino)quinolin-6-yl)pyrimidin-2-yl)piperazin-1-yl)acetonitrile], the pIC50 was over 6.00. `Cc1ccc(C)c(Nc2c(Cl)c(C(=O)Nc3cccnc3)nc3ccc(-c4ccc(C(N)=O)nc4)cc23)c1` [Example 37, 6-(6-carbamoylpyridin-3-yl)-3-chloro-4-((2,5-dimethylphenyl)amino)-N-(pyridin-3-yl) quinoline-2-carboxamide] showed a pIC50 of 4.60 to 5.00. With `CC(C)(O)c1ncc(-c2ccc3ncc(Cl)c(NC(CC(F)F)c4ccccc4F)c3c2)cn1` (racemic) [Example 168, 2-(5-(3-chloro-4-((3,3-difluoro-1-(2-fluorophenyl)propyl)amino)quinolin-6-yl)pyrimidin-2-yl)propan-2-ol] the pIC50 was over 6.00. In the case of `C=Cc1cccc([C@@H](C)Nc2c(Cl)c(C)nc3cc(F)c(-c4cnc(C(C)(C)O)nc4)nc23)c1` [Example 571, (R)-2-(5-(7-chloro-3-fluoro-6-methyl-8-((1-(3-vinylphenyl)ethyl)amino)-1,5-naphthyridin-2-yl)pyrimidin-2-yl)propan-2-ol], the pIC50 was over 6.00. `CC(Nc1c(Cl)cnc2ccc(-c3cnc(C(C)(C)O)nc3)cc12)[C@H]1CCCNC1` (single isomer, unassigned) [Example 96] gave a pIC50 of 4.60 to 5.00. `C[C@@H](Nc1c(Cl)cnc2ccc(-c3cnc(C(C)(C)O)nc3)cc12)c1cc(S(N)(=O)=O)ccc1F` [Example 426, (R)-3-(1-((3-chloro-6-(2-(2-hydroxypropan-2-yl)pyrimidin-5-yl)quinolin-4-yl)amino)ethyl)-4-fluorobenzenesulfonamide] gave a pIC50 of over 6.00. In the case of `C[C@@H](Nc1c(Cl)cnc2cc(F)c(-c3cnc(C(C)(C)O)nc3)nc12)c1cc(C(N)=O)ccc1F` [Example 583, (R)-3-(1-((3-chloro-7-fluoro-6-(2-(2-hydroxypropan-2-yl)pyrimidin-5-yl)-1,5-naphthyridin-4-yl)amino)ethyl)-4-fluorobenzamide], the pIC50 was over 6.00. In the case of `CCCC(C)C(N)c1c(Cl)c(C)nc2ccc(-c3cnc(C(C)(C)O)nc3)cc12` (single isomer, unassigned) [Example 357, 2-(5-(4-(1-amino-2-methylpentyl)-3-chloro-2-methylquinolin-6-yl)pyrimidin-2-yl)propan-2-ol], the pIC50 was 5.00 to 6.00. `C[C@@H](Nc1c(Cl)cnc2ccc(-c3cnc(C(C)(C)O)nc3)cc12)c1cc(-n2cccn2)ccc1F` [Example 366, (R)-2-(5-(3-chloro-4-((1-(2-fluoro-5-(1H-pyrazol-1-yl)phenyl)ethyl)amino)quinolin-6-yl)pyrimidin-2-yl)propan-2-ol] gave a pIC50 of over 6.00. In the case of `CCC(Nc1c(Cl)cnc2ccc(-c3cnc(C(C)(C)O)nc3)cc12)c1nc(C(O)CO)ccc1F` (centres unmarked) [Example 127, 1-(6-(1-((3-chloro-6-(2-(2-hydroxypropan-2-yl)pyrimidin-5-yl)quinolin-4-yl)amino)propyl)-5-fluoropyridin-2-yl)ethane-1,2-diol], the pIC50 was over 6.00. For `Cc1nc2ccc(-c3cnc(C(C)(C)O)nc3)cc2c(NC(C)c2cc(F)ccc2F)c1Cl` (racemic) [Example 317, 2-(5-(3-chloro-4-((1-(2,5-difluorophenyl)ethyl)amino)-2-methylquinolin-6-yl)pyrimidin-2-yl)propan-2-ol], the pIC50 was over 6.00. `CC(C)(O)c1ncc(-c2ccc3ncc(Cl)c(NC(c4ccccc4F)C(C)(C)F)c3c2)cn1` (racemic) [Example 229, 2-(5-(3-chloro-4-((2-fluoro-1-(2-fluorophenyl)-2-methylpropyl)amino)quinolin-6-yl)pyrimidin-2-yl)propan-2-ol] was tested, and the pIC50 was 4.60 to 5.00. `Cc1nc2ccc(-c3cnc(C(C)(C)O)nc3)cc2c(N[C@H](C)c2cc(-c3nnn[nH]3)ccc2F)c1Cl` [Example 412, (R)-2-(5-(3-chloro-4-((1-(2-fluoro-5-(1H-tetrazol-5-yl)phenyl)ethyl)amino)-2-methylquinolin-6-yl)pyrimidin-2-yl)propan-2-ol] showed a pIC50 of 4.60 to 5.00. With `C[C@@H](Nc1c(Cl)cnc2ccc(-c3cnc(C(C)(C)O)nc3)cc12)c1cc(C(O)CO)ccc1F` (single isomer, unassigned) [Example 401] the pIC50 was over 6.00. `Cc1nc2ccc(-c3ccc(C(C)(C)O)cc3)cc2c(NC(C)c2ccsc2)c1Cl` (centres unmarked) [Example 503, 2-(4-(3-chloro-2-methyl-4-((1-(thiophen-3-yl)ethyl)amino)quinolin-6-yl)phenyl)propan-2-ol] showed a pIC50 of 5.00 to 6.00. Work on `C=Cc1ccc(F)c([C@@H](C)Nc2c(Cl)c(C)nc3ccc(-c4cnc(C(C)(C)O)nc4)cc23)c1` [Example 330, (R)-2-(5-(3-chloro-4-((1-(2-fluoro-5-vinylphenyl)ethyl)amino)-2-methylquinolin-6-yl)pyrimidin-2-yl)propan-2-ol] yielded a pIC50 of over 6.00. `CC(Nc1c(Cl)cnc2cc(F)c(-c3ccc(C(O)CO)cc3)cc12)c1cc(C#N)ccc1F` (mixture of isomers) [Example 599, 3-(1-((3-chloro-6-(4-(1,2-dihydroxyethyl)phenyl)-7-fluoroquinolin-4-yl)amino)ethyl)-4-fluorobenzonitrile] showed a pIC50 of over 6.00. `C[C@@H](Nc1c(Cl)cnc2ccc(-c3cnc(C(C)(C)O)nc3)cc12)c1cc(-c2cc(C(=O)O)[nH]n2)ccc1F` [Example 428, (R)-3-(3-(1-((3-chloro-6-(2-(2-hydroxypropan-2-yl)pyrimidin-5-yl)quinolin-4-yl)amino)ethyl)-4-fluorophenyl)-1H-pyrazole-5-carboxylic acid] was tested, and the pIC50 was 4.60 to 5.00. In the case of `C[C@@H](Nc1c(Cl)cnc2ccccc12)c1cc(-c2cncnc2)ccc1F` [Example 479, (R)-3-chloro-N-(1-(2-fluoro-5-(pyrimidin-5-yl)phenyl)ethyl)quinolin-4-amine], the pIC50 was over 6.00. `C[C@@H](Nc1c(Cl)cnc2ccc(-c3ccncc3)cc12)c1cc(-c2cncnc2)ccc1F` [Example 540, (R)-3-chloro-N-(1-(2-fluoro-5-(pyrimidin-5-yl)phenyl)ethyl)-6-(pyridin-4-yl)quinolin-4-amine] gave a pIC50 of over 6.00. `CC(C)(O)c1ncc(-c2cc3c(N[C@H]4C[C@@H]4c4ccccc4)c(Cl)cnc3cc2F)cn1` (mixture of isomers) [Example 271, 2-(5-(3-chloro-7-fluoro-4-(((1S,2R)-2-phenylcyclopropyl)amino)quinolin-6-yl)pyrimidin-2-yl)propan-2-ol] showed a pIC50 of 5.00 to 6.00. `Cc1nc2ccc(-c3cnc(C(C)(C)O)nc3)cc2c(N[C@H](c2cc(Br)ccc2F)C(F)F)c1Cl` [Example 321, (R)-2-(5-(4-((1-(5-bromo-2-fluorophenyl)-2,2-difluoroethyl)amino)-3-chloro-2-methylquinolin-6-yl)pyrimidin-2-yl) propan-2-ol] was tested, and the pIC50 was 4.60 to 5.00. `CC(Nc1c(Cl)cnc2cc(F)c(-c3cnc(N4CCN(C(=O)[C@@H](N)CC(=O)O)CC4)nc3)cc12)c1ccccc1F` (single isomer, unassigned) [Example 605, (3 S)-3-amino-4-(4-(5-(3-chloro-7-fluoro-4-((1-(2-fluorophenyl)ethyl)amino)quinolin-6-yl)pyrimidin-2-yl)piperazin-1-yl)-4-oxobutanoic acid] showed a pIC50 of over 6.00. `Cc1nc2cc(F)c(-c3cnc(C(C)(C)O)nc3)cc2c(N[C@H](C)c2cc(OCCCO)ccc2F)c1Cl` [Example 443, (R)-3-(3-(1-((3-chloro-7-fluoro-6-(2-(2-hydroxypropan-2-yl)pyrimidin-5-yl)-2-methylquinolin-4-yl)amino)ethyl)-4-fluorophenoxy)propan-1-ol] was tested, and the pIC50 was over 6.00. `C[C@@H](Nc1c(Cl)cnc2ccccc12)c1cc(-c2cccnc2N)ccc1F` [Example 512, (R)—N-(1-(5-(2-aminopyridin-3-yl)-2-fluorophenyl)ethyl)-3-chloroquinolin-4-amine] was tested, and the pIC50 was 4.60 to 5.00. With `CC[C@H](Nc1c(Cl)cnc2ccccc12)c1cc(-c2cncnc2)ccc1F` [Example 557, (S)-3-chloro-N-(1-(2-fluoro-5-(pyrimidin-5-yl)phenyl)propyl)quinolin-4-amine] the pIC50 was 5.00 to 6.00. In the case of `Cc1nc2ccc(-c3cnc(C(C)(C)O)nc3)cc2c(N[C@H](C)c2cc(CCO)ccc2F)c1Cl` [Example 323, (R)-2-(5-(3-chloro-4-((1-(2-fluoro-5-(2-hydroxyethyl)phenyl)ethyl)amino)-2-methylquinolin-6-yl)pyrimidin-2-yl)propan-2-ol], the pIC50 was over 6.00. `C=Cc1ccc(F)c([C@H](Nc2c(Cl)c(C)nc3cc(F)c(-c4cnc(C(C)(C)O)nc4)nc23)C(F)F)c1` [Example 494, (S)-2-(5-(7-chloro-8-((2,2-difluoro-1-(2-fluoro-5-vinylphenyl)ethyl)amino)-3-fluoro-6-methyl-1,5-naphthyridin-2-yl)pyrimidin-2-yl) propan-2-ol] gave a pIC50 of over 6.00.
